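Tested at 5 concentrations; 48 h exposure; 96-well plates; endpoints linearly interpolated, else capped at highest concentration. TGI is the concentration that stops growth completely.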
Experiments:
Experiment in all cases: NCI anticancer screen, dose series, 48 h
[1] = system: M14 melanoma
[2] = system: MDA-N
[3] = system: ACHN renal
[4] = system: NCI-H23 lung
[5] = system: SF-539 CNS
[6] = system: OVCAR-4 ovarian
[7] = system: RXF 393 renal
[8] = system: SK-MEL-2 melanoma
[9] = system: CAKI-1 renal
[10] = system: HOP-62 NSCLC
[11] = system: HCT-15 colon

Structure (SMILES) | TGI [1] [µM] | TGI [2] [µM] | TGI [3] [µM] | TGI [4] [µM] | TGI [5] [µM] | TGI [6] [µM] | TGI [7] [µM] | TGI [8] [µM] | TGI [9] [µM] | TGI [10] [µM] | TGI [11] [µM]
C=CC1(CBr)CCC(C(C)(C)Br)O1 (configuration not stated) | 27.7 | 22.7 | 30.2 | 19.9 | 30.8 | 28 | 27.3 | 28.1 | 16.5 | 30 | 23.8
CC1(C)N=C(N)N=C(N)N1c1ccc(CCCCc2ccc(Cl)cc2Cl)cc1 | 14 | 2.67 | 16.1 | 11.9 | 8.74 | 13.5 | 20.4 | 13.5 | 9.08 | 10.6 | > 100
COC(=O)[C@H]1ON2O[C@@H](O[C@H]3CCCC[C@@H]3C(C)(C)c3ccccc3)C[C@@H]3CC[C@H]1[C@@]32C | > 100 | > 100 | > 100 | > 100 |  |  | > 100 |  | > 100 | > 100 | > 100
N#C[C@](CO)(NC(=O)OCc1ccccc1)C(F)F | > 100 |  | > 100 | > 100 |  | > 100 | > 100 | > 100 | > 100 | > 100 | > 100
O=S(=O)(O)Nc1ccc(-c2nc3ccccc3s2)cc1Cl | > 100 | > 100 | > 100 | > 100 | > 100 | > 100 | > 100 | > 100 | > 100 | > 100 | > 100
C=CCN1C(=O)/C(=C/c2cccs2)N=C1SC1OC(COC(=O)c2ccccc2)C(OC(=O)c2ccccc2)C1OC(=O)c1ccccc1 (configuration not stated) |  |  | > 100 | > 100 | > 100 | > 100 | > 100 | > 100 | > 100 | > 100 | > 100
COc1cc(/C=C/C(=O)O)ccc1O | > 100 | > 100 | > 100 | > 100 | > 100 | > 100 |  | > 100 | > 100 | > 100 | > 100
Nc1ccccc1Sc1ccc(Cl)cc1 | > 100 |  | 99.2 | 64.4 | > 100 | > 100 | 32.1 | 87.8 |  | > 100 | > 100
CCC(/C=C/c1ccccc1)=N\NC(=S)N/N=C(/C=C/c1ccccc1)CC | > 100 | > 100 | > 100 | > 100 | 91.6 | > 100 | > 100 |  | > 100 | > 100 | > 100
COC(=O)c1cc(C)ccc1CC(Cc1ccccc1C)C(=O)OC (configuration not stated) | > 100 | > 100 | > 100 | > 100 | > 100 | > 100 | 77.6 |  | > 100 | > 100 | > 100
COC(=O)c1ccc(NCC2=CC(=O)c3ccccc3C2=O)cc1 | 37.1 | 26.6 | 42.4 | 38.2 | 63.6 | 29.1 | > 61.7 | 42.2 | 28 | 34.7 | 33.1
C=C1CC(CNc2cc(Cl)nc(N)n2)C1 |  | > 100 | > 100 | > 100 | > 100 | > 100 | > 100 | > 100 | > 100 | > 100 | > 100
CC1CSc2nc3[nH]c(=S)[nH]c3c(=O)n2C1 (configuration not stated) |  |  | > 100 | > 100 | > 100 | > 100 | > 100 |  | > 100 | > 100 | > 100
C=CCOc1ccc(C2c3c([nH][nH]c3=O)CC(C)(O)C2C(=O)OC)cc1OC (configuration not stated) | > 100 | > 100 | > 100 | > 100 | > 100 | > 100 |  | > 100 | > 100 | > 100 | > 100
CCOC(=O)c1c(NC(=O)c2ccccc2)sc2c1CCC2 | > 100 | > 100 | > 100 | > 100 | > 100 |  | > 100 | > 100 | > 100 | > 100 | > 100
c1ccc2c(Cc3c[nH]c4ccccc34)c[nH]c2c1 | 34.1 | 41.5 | > 100 | 38.3 |  | 35.3 | 33.1 | 52.6 | 31.4 | 33.8 | > 100
O=C1CNc2cc(N3CCN(c4cccc(C(F)(F)F)c4)CC3)ccc2N1 | > 100 | > 100 | > 100 | > 100 | > 100 | > 100 |  | > 100 | > 100 | > 100 | > 100
CC(=O)/C=C/c1c[nH]c(=O)[nH]c1=O |  |  |  | 745 | 601 | 883 | 416 | 444 | 178 | 765 | 523
OCCCN(CCc1ccc(Cl)c(Cl)c1)CCN1CCCC1 | 32.9 | 42.7 | > 100 | > 100 |  | > 100 | > 100 | 36.6 | > 100 | > 100 | > 100
O=S(=O)(NC(c1ccccc1)(c1cc2ccccc2[nH]1)c1cc2ccccc2n1S(=O)(=O)c1ccccc1)c1ccccc1 (configuration not stated) | > 100 |  |  | > 100 |  | > 100 |  | > 100 | > 100 | > 100 | > 100
O=C(COC(=O)c1ccccc1)c1ccc(Br)cc1 | 31 | 16.4 | 65.9 | 49.2 | 28.4 |  | 11.6 | 28.2 | 6.44 | 43.8 | 35.1
COc1ccc(S(=O)Cc2cc(OC)ccc2OC)cc1 (configuration not stated) | > 100 | > 100 | > 100 | > 100 | > 100 | > 100 | > 100 |  | > 100 | > 100 | > 100
